For the series, the system named is broilers.

Structures are written as SMILES.

Experimental: A total of 320 broilers (35 days of age) were randomly allocated to 64 pens (5 birds/pen). […] All solutions were prepared and replaced twice a day, and all birds were given free access to the solutions. Water intake, feed consumption, weight gain, and mortality was monitored during the seven day experimental period.

For `O=C(O)CC(O)(CC(=O)O)C(=O)O` [citric acid], the “levels that did not affect live performance” value (broilers, drinking water, seven days, percent by weight) is on record as “up to 0.4%”. The “differences in mortality during the experiment” value (chicken (broilers), in vivo) was “No significant (P>0.05) differences”. The “response of daily and 7-day water consumption to graded levels in the water” value (in vivo) is “Linear and quadratic responses”.

The values above are taken from patent US7887850B2, “Method for reducing pathogens in the gastrointestinal tract of poultry and other food animals” (Ecolab Inc., priority 2004, dated 2011).
